The values that follow come from PubChem BioAssay (NCI).

≈ marks a conversion by molar mass, not a printed value. Where “and” joins values, the source holds several entries; their conditions need not be identical. Equal entries are not always repeated.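 Five compound concentrations were applied to cells in 96-well plates for 48 hours; endpoints were derived by simple linear interpolation of the resulting dose-response curve. GI50 = concentration required for 50% inhibition of growth. TGI denotes the concentration required for complete inhibition of growth.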

Test systems include COLO 205 colon; HL-60(TB) leukemia; NCI-H226 lung; NCI-H460 lung; HCC-2998 colon; IGROV1 ovarian; OVCAR-3 ovarian; RPMI-8226 leukemia.
What all share (test): NCI tumour cell line growth inhibition, 48 h

On to `CN1CCC(O)C(CNC23CC4CC(CC(C4)C2)C3)C1` (stereo not drawn), for which the TGI in the assay on COLO 205 colon, in the assay with HL-60(TB) leukemia, with NCI-H226 lung and in the assay with NCI-H460 lung was over 100 µM each time.
For `COc1ccc(CN(O)C2C(CO)OC(n3cc(I)c(=O)[nH]c3=O)C2O)cc1` (stereo not drawn), the TGI in the assay with COLO 205 colon, with HCC-2998 colon, with HL-60(TB) leukemia, in the assay on IGROV1 ovarian, in the assay with NCI-H460 lung and with OVCAR-3 ovarian was over 100 µM each time. In addition, in the assay on RPMI-8226 leukemia, the TGI is over 100 µM.
Regarding `CCN(CC)CCN(C)CC(C)(C)C(=O)/C=C/c1ccccc1`, the TGI in the assay on COLO 205 colon came to 26.6 µM; in the assay on HCC-2998 colon, 27.7 µM; in the assay on HL-60(TB) leukemia, 28.9 µM; in the assay with IGROV1 ovarian, 36.5 µM; in the assay with NCI-H226 lung, 32.4 µM; in the assay on NCI-H460 lung, 20.3 µM. Besides, the TGI stood at 26.2 µM with OVCAR-3 ovarian and 36 µM in the assay on RPMI-8226 leukemia.
Consider `C=C1C(=O)OC2C1C(OC(=O)/C(=C/C)COC(C)=O)CC1(CO1)C1C(OC(=O)/C(=C/C)CO)C=C(C)C21` (stereo not drawn), for which the TGI in the assay on COLO 205 colon was determined as 2.3 µM; in the assay with HCC-2998 colon it was 3.39 µM; with HL-60(TB) leukemia it was 2.34 µM; in the assay on IGROV1 ovarian it was 3.82 µM; with NCI-H226 lung, 4.18 µM; with NCI-H460 lung, 28.3 µM. The TGI was determined as 12.2 µM with OVCAR-3 ovarian and 6.56 µM in the assay on RPMI-8226 leukemia.
Consider `O=C(CC1Sc2ccccc2NC1=O)Nc1cccc(Cl)c1` (stereo not drawn), for which the TGI in the assay on HCC-2998 colon was over 100 µM; in the assay on HL-60(TB) leukemia, over 100 µM; in the assay on IGROV1 ovarian, over 100 µM; with NCI-H226 lung, 90.8 µM; with NCI-H460 lung, over 100 µM; in the assay on OVCAR-3 ovarian it was 86.8 µM. The compound further registered a TGI in the assay on RPMI-8226 leukemia of 69.6 µM.
As to `CC(C)NC(=O)OCc1nnn2c1C(OC(=O)NC(C)C)CC2` (stereo not drawn), the TGI in the assay on COLO 205 colon, in the assay with HCC-2998 colon, with IGROV1 ovarian, with NCI-H226 lung, in the assay on NCI-H460 lung and in the assay on OVCAR-3 ovarian was over 100 µM each time. The TGI in the assay on RPMI-8226 leukemia is over 100 µM.
For `COCCNC(=O)C1C(=O)N(CCOC)C(=O)/C1=N/N` (stereo not drawn), the TGI in the assay with HL-60(TB) leukemia, in the assay on IGROV1 ovarian, in the assay on NCI-H226 lung, with OVCAR-3 ovarian and in the assay with RPMI-8226 leukemia was over 100 µM in each case.
As to `CCCCNC(=S)Nn1c(-c2ccccc2)nc2ccccc2c1=O`, the TGI with COLO 205 colon, in the assay on HL-60(TB) leukemia, in the assay with IGROV1 ovarian, in the assay with NCI-H226 lung, in the assay with NCI-H460 lung and with RPMI-8226 leukemia was over 100 µM in each case.
`COc1ccc(C(=O)O/N=C2\CCCC\C2=C/c2ccccc2)cc1`: the TGI in the assay with COLO 205 colon, in the assay with HCC-2998 colon, with HL-60(TB) leukemia, in the assay on IGROV1 ovarian and in the assay with NCI-H460 lung was over 100 µM in each case.
Consider `CC(=O)NNc1nc(C)c(C(/C=C/c2ccc(/C=C/C(=N\NC(=O)c3ccncc3)c3sc(NNC(C)=O)nc3C)cc2)=N/NC(=O)c2ccncc2)s1`, for which the TGI in the assay on COLO 205 colon, in the assay on HCC-2998 colon, in the assay on HL-60(TB) leukemia, in the assay with IGROV1 ovarian, in the assay with NCI-H226 lung and in the assay on NCI-H460 lung was over 100 µM throughout. The TGI in the assay with OVCAR-3 ovarian and in the assay with RPMI-8226 leukemia was over 100 µM each time.
As to `CCS[C@H]1NC(=O)C1[C@H](C)O[Si](C)(C)C(C)(C)C` (stereo partly drawn), the TGI with COLO 205 colon, with IGROV1 ovarian, with NCI-H460 lung, in the assay with OVCAR-3 ovarian and in the assay with RPMI-8226 leukemia was over 100 µM in each case.
`COC(=O)C1Cc2c([nH]c3ccccc23)[C@H](CC(C)C)N1` (stereo partly drawn): the TGI in the assay on COLO 205 colon, with HCC-2998 colon, in the assay on HL-60(TB) leukemia, with IGROV1 ovarian, in the assay on NCI-H226 lung and with OVCAR-3 ovarian was over 100 µM throughout. Also, the TGI in the assay with RPMI-8226 leukemia was over 100 µM.
As to `CC(=O)OC1COC(N2C(=O)C(=O)c3c(C)cc(Cl)nc32)C(OC(C)=O)C1OC(C)=O` (stereo not drawn), the TGI with COLO 205 colon, in the assay with HL-60(TB) leukemia, in the assay with IGROV1 ovarian, with NCI-H226 lung, in the assay with NCI-H460 lung and with OVCAR-3 ovarian was over 100 µM each time. The TGI in the assay with RPMI-8226 leukemia was over 100 µM.
`CCCCN(CCCC)C(=Nc1ccccc1)N(CCCC)CCCC`: the TGI in the assay with COLO 205 colon amounted to 14 µM; in the assay with HCC-2998 colon, 15.4 µM; in the assay with HL-60(TB) leukemia, 4.09 µM; in the assay with IGROV1 ovarian it was 23.1 µM; in the assay on NCI-H460 lung it was 19.1 µM; in the assay with OVCAR-3 ovarian, 12.1 µM. In the assay on RPMI-8226 leukemia, this compound showed a TGI of 4.42 µM.
On to `COC(=O)C(=O)C(C#N)c1cccc2ccccc12` (stereo not drawn), for which the TGI in the assay on COLO 205 colon, in the assay on HCC-2998 colon, in the assay on HL-60(TB) leukemia, in the assay on IGROV1 ovarian, with NCI-H226 lung and with OVCAR-3 ovarian was over 100 µM throughout. Also, the TGI in the assay with RPMI-8226 leukemia was over 100 µM.
For the compound `O=C(Nc1ccc(Cl)cc1)NS(=O)(=O)c1ccc2c(c1)CCC2`, the TGI is over 60.8 µM in the assay on COLO 205 colon; > 77.6 µM and 36.8 µg/mL with HCC-2998 colon; > 78.2 µM and 65.8 µg/mL in the assay with HL-60(TB) leukemia; 94.3 µM and 18.7 µg/mL in the assay with IGROV1 ovarian; > 77.8 µM and 52.5 µg/mL in the assay with NCI-H226 lung; > 46.4 µM and 36.6 µg/mL with NCI-H460 lung. Also, the TGI in the assay on OVCAR-3 ovarian was 73.8 µM and 21.4 µg/mL; in the assay with RPMI-8226 leukemia it was 85.7 µM and 150 µg/mL. Further, the GI50 in the assay with HCC-2998 colon is 17.3 µg/mL (≈ 49.4 µM); in the assay on HL-60(TB) leukemia, 24.1 µg/mL (≈ 68.7 µM); with IGROV1 ovarian it was 4.37 µg/mL (≈ 12.5 µM); with NCI-H226 lung, 24.1 µg/mL (≈ 68.6 µM); with NCI-H460 lung, 7.71 µg/mL (≈ 22 µM); in the assay with OVCAR-3 ovarian, 5.61 µg/mL (≈ 16 µM). Besides, in the assay with RPMI-8226 leukemia, the GI50 was 34.2 µg/mL (≈ 97.5 µM).
